We go through 27 compounds from patent US11298363B2, “Triazolobenzazepines as vasopressin V1a receptor antagonists” (RICHTER GEDEON NYRT., priority 2017, dated 2022).

Each structure is given as a SMILES string. Counter-ions that a name gives are not always drawn.

The target in test [1] is T1, human vasopressin V1a receptor (Homo sapiens, UniProt P37288). The test can be described thus: Human vasopressin V1a receptor binding assay. The following applies: 1321N1 cell membranes, [3H]vasopressin; read-out: Ki (nM) on hV1a cell line. In a few lines: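 Radioligand competition on membranes from cells expressing human V1a receptor; incubation 60 minutes at 27° C., non-specific binding with 1.2×10^−6 M unlabeled (Arg^8)-vasopressin, filtration separation. Ki by Cheng-Prusoff using Scatchard-derived KD, from at least two independent experiments.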

The target in test [2] is T1, human vasopressin V1a receptor. Briefly: Functional assay on human vasopressin V1a receptor expressing cell line (intracellular Ca2+ fluorescence). The following applies: 1321N1 cells, (Arg8)-vasopressin at EC80; read-out: IC50 (nM) on hV1a cell line. Type of test: cell-based.

T1 sequence (P37288 whole entry): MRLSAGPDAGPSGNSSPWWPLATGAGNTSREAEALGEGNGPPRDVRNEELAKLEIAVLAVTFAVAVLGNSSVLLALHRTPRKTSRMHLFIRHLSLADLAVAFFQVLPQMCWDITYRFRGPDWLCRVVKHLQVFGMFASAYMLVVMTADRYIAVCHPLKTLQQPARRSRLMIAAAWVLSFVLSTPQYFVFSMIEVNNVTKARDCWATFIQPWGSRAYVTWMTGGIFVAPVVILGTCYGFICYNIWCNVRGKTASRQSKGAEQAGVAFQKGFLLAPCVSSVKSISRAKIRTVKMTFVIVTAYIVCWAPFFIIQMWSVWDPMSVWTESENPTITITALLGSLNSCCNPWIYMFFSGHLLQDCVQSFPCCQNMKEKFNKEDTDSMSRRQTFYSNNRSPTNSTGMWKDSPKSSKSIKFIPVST

Turning to `Clc1ccc2c(c1)C[C@H](NC1CCCC1)Cc1nnc([C@H]3CC[C@H](Oc4ccccn4)CC3)n1-2` [Example 154, (5S)-8-chloro-N-cyclopentyl-1-[trans-4-(pyridin-2-yloxy)cyclohexyl]-5,6-dihydro-4H-[1,2,4]triazolo[4,3-a][1]benzazepin-5-amine], the Ki in test [1] was 0.8 nM. The IC50 in test [2] was determined as 21 nM.

For the compound `Clc1ccc2c(c1)CC1(Cc3nnc(N4CCC5(CC4)OCc4ccccc45)n3-2)OCCO1` [Example 155, 8′-chloro-1′-(1′H,3H-spiro[2-benzofuran-1,4′-piperidin]-1′-yl)-4′H,6′H-spiro[1,3-dioxolane-2,5′-[1,2,4]triazolo[4,3-a][1]benzazepine]], the Ki in test [1] was determined as 0.04 nM. In addition, in test [2], the IC50 came out at 0.7 nM.

For `O=C1Cc2cc(Cl)ccc2-n2c(nnc2N2CCC3(CC2)OCc2ccccc23)C1` [Example 156, 8-chloro-1-(1′H,3H-spiro[2-benzofuran-1,4′-piperidin]-1′-yl)-4H-[1,2,4]triazolo[4,3-a][1]benzazepin-5(6H)-one], in test [1], the Ki is 0.5 nM. Moreover, the IC50 in test [2] came to 9.5 nM.

Regarding `CCC(C)(C)C(=O)N[C@H]1Cc2cc(Cl)ccc2-n2c(nnc2[C@H]2CC[C@H](Oc3ccccn3)CC2)C1` [Example 158, N-{(5S)-8-chloro-1-[trans-4-(pyridin-2-yloxy)cyclohexyl]-5,6-dihydro-4H-[1,2,4]triazolo[4,3-a][1]benzazepin-5-yl}-2,2-dimethylbutanamide], the Ki in test [1] was found to be 62 nM. Further, in test [2], the IC50 is 1510 nM.

For the compound `CC(C)(O)C(=O)N[C@H]1Cc2cc(Cl)ccc2-n2c(nnc2[C@H]2CC[C@H](Oc3ccccn3)CC2)C1` [Example 159, N-{(5S)-8-chloro-1-[trans-4-(pyridin-2-yloxy)cyclohexyl]-5,6-dihydro-4H-[1,2,4]triazolo[4,3-a][1]benzazepin-5-yl}-2-hydroxy-2-methylpropanamide], the Ki in test [1] amounted to 8 nM. In addition, the IC50 in test [2] was 216 nM.

`CCN(C)[C@H]1Cc2cc(Cl)ccc2-n2c(nnc2[C@H]2CC[C@H](Oc3ccccn3)CC2)C1` [Example 160]: the Ki in test [1] is 0.4 nM. Further, in test [2], the IC50 was determined as 4.9 nM.

Regarding `CC(C)CN[C@H]1Cc2cc(Cl)ccc2-n2c(nnc2[C@H]2CC[C@H](Oc3ccccn3)CC2)C1` [Example 161, (5S)-8-chloro-N-(2-methylpropyl-1-[trans-4-pyridin-2-yloxy)cyclohexyl]-5,6-dihydro-4H-[1,2,4]triazolo[4,3-a][1]benzazepin-5-amine], the Ki in test [1] came to 1.8 nM. Besides, the half-maximal inhibitory concentration (IC50) in test [2] was 34 nM.

Turning to `Clc1ccc2c(c1)CC1(Cc3nnc([C@H]4CC[C@H](N5CCOCC5)CC4)n3-2)OCCO1` [Example 162, 8′-chloro-1′-[trans-4-(morpholin-4-yl)cyclohexyl]-4′H,6′H-spiro[1,3-dioxolane-2,5′-[1,2,4]triazolo[4,3-a][1]benzazepine]hydrochloride], in test [1], the Ki turned out to be 0.5 nM. Also, the IC50 in test [2] was found to be 2.9 nM.

In the case of `CN(C)C1Cc2cc(Cl)ccc2-n2c(nnc2N2CCC3(CC2)OCc2ccccc23)C1` (stereo not drawn) [Example 163], in test [1], the Ki turned out to be 1 nM. In addition, the IC50 in test [2] amounted to 6.2 nM.

Turning to `Clc1ccc2c(c1)CC1(Cc3nnc(N4CCN(c5ncccc5Cl)CC4)n3-2)OCCO1` [Example 164, 8′-chloro-1-[4-(3-chloropyridin-2-yl)piperazin-1-yl]-4′H,6′H-spiro[1,3-dioxolane-2,5′-[1,2,4]triazolo[4,3-a][1]benzazepine]], the Ki in test [1] was determined as 0.3 nM. For the same compound, the half-inhibitory concentration (IC50) in test [2] turned out to be 0.9 nM.

As to `CC(C)(C)CN[C@H]1Cc2cc(Cl)ccc2-n2c(nnc2[C@H]2CC[C@H](Oc3ccccn3)CC2)C1` [Example 165, (5S)-8-chloro-N-(2,2-dimethylpropyl)-1-[trans-4-(pyridin-2-yloxy)cyclohexyl]-5,6-dihydro-4H-[1,2,4]triazolo[4,3-a][1]benzazepin-5-amine], in test [1], the Ki turned out to be 1.5 nM. The IC50 in test [2] was 21 nM.

For `COC1Cc2cc(Cl)ccc2-n2c(nnc2[C@H]2CC[C@H](C(=O)N3CCN(C)CC3)CC2)C1` (stereo partly drawn) [Example 166, [Trans-4-(8-chloro-5-methoxy-5,6-dihydro-4H-[1,2,4]triazolo[4,3-a][1]benzazepin-1-yl)cyclohexyl](4-methylpiperazin-1-yl)methanone], the Ki in test [1] was 6.2 nM. Further, the IC50 in test [2] came to 169 nM.

Take `Clc1ccc2c(c1)C[C@@H](N1CCOCC1)Cc1nnc([C@H]3CC[C@H](Oc4ccccn4)CC3)n1-2` [Example 167, (5R)-8-chloro-5-(morpholin-4-yl)-1-[trans-4-(pyridin-2-yloxy)cyclohexyl]-5,6-dihydro-4H-[1,2,4]triazolo[4,3-a][1]benzazepine]: the Ki in test [1] turned out to be 0.4 nM. In addition, the IC50 in test [2] turned out to be 2.6 nM.

With `CC(=O)N[C@@H]1Cc2cc(Cl)ccc2-n2c(nnc2[C@H]2CC[C@H](Oc3ccccn3)CC2)C1` [Example 168, N-{(5R)-8-chloro-1-[trans-4-(pyridin-2-yloxy)cyclohexyl]-5,6-dihydro-4H-[1,2,4]triazolo[4,3-a][1]benzazepin-5-yl}acetamide], in test [1], the Ki was found to be 0.4 nM. The IC50 in test [2] came out at 0.8 nM.

Consider `CC(C)(O)C(=O)N[C@@H]1Cc2cc(Cl)ccc2-n2c(nnc2[C@H]2CC[C@H](Oc3ccccn3)CC2)C1` [Example 169, N-{(5R)-8-chloro-1-[trans-4-(pyridin-2-yloxy)cyclohexyl]-5,6-dihydro-4H-[1,2,4]triazolo[4,3-a][1]benzazepin-5-yl}-2-hydroxy-2-methylpropanamide], for which the Ki in test [1] was 0.9 nM. The IC50 in test [2] turned out to be 2.3 nM.

For `COC1Cc2cc(Cl)ccc2-n2c(nnc2C2CCN(C3CCOCC3)CC2)C1` (stereo not drawn) [Example 170, 8-chloro-5-methoxy-1-[1-(tetrahydro-2H-pyran-4-yl)piperidin-4-yl]-5,6-dihydro-4H-[1,2,4]triazolo[4,3-a][1]benzazepine], the inhibition constant (Ki) in test [1] was 15.3 nM. Moreover, the IC50 in test [2] is 38 nM.

Regarding `Clc1ccc2c(c1)CC1(Cc3nnc(N4CCN(c5ccccn5)CC4)n3-2)OCCO1` [Example 171, 8′-chloro-1′-[4-(pyridin-2-yl)piperazin-1-yl]-4′H,6′H-spiro[1,3-dioxolane-2,5′-[1,2,4]triazolo[4,3-a][1]benzazepine]], in test [1], the Ki was found to be 0.6 nM. Also, in test [2], the IC50 amounted to 1.2 nM.

With `OC1Cc2cc(Cl)ccc2-n2c(nnc2N2CCC3(CC2)OCc2ccccc23)C1` (stereo not drawn) [Example 172, 8-chloro-1-(1′H,3H-spiro[2-benzofuran-1,4′-piperidin]-1′-yl)-5,6-dihydro-4H-[1,2,4]triazolo[4,3-a][1]benzazepin-5-ol], the Ki in test [1] amounted to 0.7 nM. The IC50 in test [2] worked out at 5.6 nM.

For `OC1Cc2cc(Cl)ccc2-n2c(nnc2N2CCC(c3ncccc3Cl)CC2)C1` (stereo not drawn) [Example 173, 8-chloro-1-[4-(3-chloropyridin-2-yl)piperidin-1-yl]-5,6-dihydro-4H-[1,2,4]triazolo[4,3-a][1]benzazepin-5-ol], in test [1], the Ki came to 1.6 nM. The IC50 in test [2] worked out at 11 nM.

As to `Clc1ccc2c(c1)C[C@@H](N1CCCC1)Cc1nnc([C@H]3CC[C@H](Oc4ccccn4)CC3)n1-2` [Example 174, (5R)-8-chloro-1-[trans-4-pyridin-2-loxcyclohexyl]-5-(pyrrolidin-1-yl)-5,6-dihydro-4H-[1,2,4]triazolo[4,3-a][1]benzazepine], in test [1], the Ki stood at 0.7 nM. The IC50 in test [2] was 3 nM.

Take `COC1Cc2cc(Cl)ccc2-n2c(nnc2C2CCN([C@H]3CCOC3)CC2)C1` (stereo partly drawn) [Example 175, 8-chloro-5-methoxy-1-{1-[(3S)-tetrahydrofuran-3-yl]piperidin-4-yl}-5,6-dihydro-4H-[1,2,4]triazolo[4,3-a][1]benzazepine]: the Ki in test [1] stood at 50.5 nM. Further, the IC50 in test [2] came out at 323 nM.

With `COC1Cc2cc(Cl)ccc2-n2c(nnc2C2CCN([C@@H]3CCOC3)CC2)C1` (stereo partly drawn) [Example 178, 8-chloro-5-methoxy-1-{1-[(3R)-tetrahydrofuran-3-yl]piperidin-4-yl}-5,6-dihydro-4H-[1,2,4]triazolo[4,3-a][1]benzazepine], the Ki in test [1] was found to be 3.9 nM. Besides, in test [2], the IC50 worked out at 19 nM.

For `CN(C)CCC(=O)N[C@@H]1Cc2cc(Cl)ccc2-n2c(nnc2[C@H]2CC[C@H](Oc3ccccn3)CC2)C1` [Example 179, N-{(5R)-8-chloro-1-[trans-4-(pyridin-2-yloxy)cyclohexyl]-5,6-dihydro-4H-[1,2,4]triazolo[4,3-a][1]benzazepin-5-yl}-N^3,N^3-dimethyl-β-alaninamide], the Ki in test [1] amounted to 0.2 nM. Moreover, the IC50 in test [2] was 1.4 nM.

Consider `O=C(N[C@@H]1Cc2cc(Cl)ccc2-n2c(nnc2[C@H]2CC[C@H](Oc3ccccn3)CC2)C1)C1CCOCC1` [Example 180, N-{(5R)-8-chloro-1-[trans-4-(pyridin-2-yloxy)cyclohexyl]-5,6-dihydro-4H-[1,2,4]triazolo[4,3-a][1]benzazepin-5-yl}tetrahydro-2H-pyran-4-carboxamide], for which the Ki in test [1] was 1.1 nM. Also, the IC50 in test [2] stood at 4.1 nM.

Turning to `OC1Cc2cc(Cl)ccc2-n2c(nnc2N2CCC(Oc3ccccn3)CC2)C1` (stereo not drawn) [Example 181, 8-chloro-1-[4-(pyridin-2-yloxy)piperidin-1-yl]-5,6-dihydro-4H-[1,2,4]triazolo[4,3-a][1]benzazepin-5-ol], in test [1], the Ki came to 0.5 nM. For the same compound, the IC50 in test [2] turned out to be 1.8 nM.

Consider `COC1Cc2cc(Cl)ccc2-n2c(nnc2[C@H]2CC[C@H](N3CCN(C)CC3)CC2)C1` (stereo partly drawn) [Example 182, 8-chloro-5-methoxy-1-[trans-4-(4-methylpiperazin-1-yl)cyclohexyl]-5,6-dihydro-4H-[1,2,4]triazolo[4,3-a][1]benzazepine], for which the Ki in test [1] was 19 nM. Also, in test [2], the IC50 came out at 416 nM.

In the case of `COC1Cc2cc(Cl)ccc2-n2c(nnc2[C@H]2CC[C@@H](N3CCN(C)CC3)CC2)C1` (stereo partly drawn) [Example 183, 8-chloro-5-methoxy-1-[cis-4-(4-methylpiperazin-1-yl)cyclohexyl]-5,6-dihydro-4H-[1,2,4]triazolo[4,3-a][1]benzazepine], the Ki in test [1] amounted to 102 nM. For the same compound, the IC50 in test [2] worked out at 2120 nM.
